Experiment [1] concerns Plasmodium falciparum clone CDC Sierra Leone I (D-6). The experiment in a line: In vitro inhibition of [3H]hypoxanthine uptake, P. falciparum D-6 clone. Conditions: Plasmodium falciparum, values in parentheses: culture medium with 10% Albumax I; read-out: IC50 (D-6). Format: cell-based. Here is the method:
(§1) The in vitro assays were conducted by using a modification of the semiautomated microdilution technique of Desjardins et al.^11 and Chulay et al.^12 Two strains of Plasmodium falciparum clones, from CDC Indochina III (W-2), CDC Sierra Leone I (D-6). […] These solutions were subsequently serially diluted 2-fold with a Biomek 1000® (Beckman, Fullerton, Calif.) over 11 different concentrations. The parasites were exposed to serial dilutions of each compound for 48 h and incubated at 37° C. with 5% O2, 5% CO2, and 90% N2 prior to the addition of [^3H]hypoxanthine. […] Uptake of [^3H]hypoxanthine was measured with a Packard Topcount scintillation counter. […] The values without parentheses indicate culture in blood serum which more closely resemble conditions in a living animal.
(§2) The numbers associated with both W2 and D6 refer to IC50 values and the units are ng/ml.

The test system of experiment [2] is Plasmodium falciparum clone CDC Indochina III (W-2). Briefly: In vitro inhibition of [3H]hypoxanthine uptake, P. falciparum W-2 clone. Type of experiment: cell-based. As to conditions: Plasmodium falciparum, values in parentheses: culture medium with 10% Albumax I; read-out: IC50 (W-2). As to the method:
as §1, §2

Converted amounts (≈) assume the structure as drawn.

The IC50 is the concentration that inhibits the measured activity by half.

Turning to `O=C1c2ccccc2-n2c1nc1ccccc1c2=O` [Example 1], the IC50 in experiment [1] and in experiment [2] was 0.069 µg/mL (≈ 0.278 µM) throughout.
With `O=c1c2ccccc2nc2sc3ccccc3n12` [Example 2], the half-maximal inhibitory concentration (IC50) in experiment [1] was 12.5 µg/mL (≈ 49.5 µM); in experiment [2] it was 15.6 µg/mL (≈ 61.9 µM).
For the molecule `O=c1c2ccccc2nc2oc3ccccc3n12` [Example 3], the half-inhibitory concentration (IC50) in experiment [1] and in experiment [2] was above 50 µg/mL each time.
Consider `Cc1ccc2nc3n(c(=O)c2c1)-c1ccccc1C3=O` [Example 5], for which the IC50 in experiment [1] turned out to be 0.313 µg/mL (≈ 1.19 µM); in experiment [2], 0.264 µg/mL (≈ 1.01 µM).
Consider `Cc1cccc2c(=O)n3c(nc12)C(=O)c1ccccc1-3` [Example 6], for which the concentration for half-maximal inhibition (IC50) in experiment [1] came out at 0.527 µg/mL (≈ 2.01 µM); in experiment [2], 0.503 µg/mL (≈ 1.92 µM).
On to `O=C1c2ccccc2-n2c1nc1ccc(Br)cc1c2=O` [Example 7], for which the figures for the half-maximal inhibitory concentration (IC50) in experiment [1] and in experiment [2] were 0.577 µg/mL (≈ 1.76 µM) and 0.513 µg/mL (≈ 1.57 µM), respectively.
With `Nc1ccc2nc3n(c(=O)c2c1)-c1ccc(F)cc1C3=O` [Example 8], the IC50 in experiment [1] and in experiment [2] was 0.062 µg/mL (≈ 0.22 µM) throughout.
With `O=C1c2c(Cl)cccc2-n2c1nc1ccccc1c2=O` [Example 9], the half-maximal inhibitory concentration (IC50) in experiment [1] came to 0.471 µg/mL (≈ 1.67 µM); in experiment [2], 0.403 µg/mL (≈ 1.43 µM).
In the same order, the values of `Cc1cc(C)c2nc3n(c(=O)c2c1)-c1ccc(F)cc1C3=O` [Example 10] are 0.138 µg/mL (≈ 0.469 µM) and 0.131 µg/mL (≈ 0.445 µM).
`Cc1cccc2c(=O)n3c(nc12)C(=O)c1cc(F)ccc1-3` [Example 14]: the results for the IC50 in experiment [1] and in experiment [2] were 0.0102 µg/mL (≈ 0.0363 µM) and 0.00576 µg/mL (≈ 0.0206 µM), respectively.
In the case of `CN1CCN(c2ccc3c(=O)n4c(nc3c2)C(=O)c2cc(F)ccc2-4)CC1` [Example 15], the half-maximal inhibitory concentration (IC50) in experiment [1] came to 0.126 µg/mL (≈ 0.345 µM); in experiment [2], 0.082 µg/mL (≈ 0.225 µM).
In the case of `CN1CCN(c2ccc3c(c2)-n2c(nc4ccccc4c2=O)C3=O)CC1` [Example 16], the half-inhibitory concentration (IC50) in experiment [1] amounted to 2.16 µg/mL (≈ 6.24 µM); in experiment [2], 1.01 µg/mL (≈ 2.93 µM).
For the molecule `CN1CCN(c2cc3c(cc2F)C(=O)c2nc4ccccc4c(=O)n2-3)CC1` [Example 18], the IC50 in experiment [1] came to 0.813 µg/mL (≈ 2.23 µM); in experiment [2], 0.513 µg/mL (≈ 1.41 µM).
As for `CN1CCN(c2cc3c(cc2F)C(=O)c2nc4cc(F)ccc4c(=O)n2-3)CC1` [Example 20], the IC50 in experiment [1] came to 1.05 µg/mL (≈ 2.76 µM); in experiment [2], 0.734 µg/mL (≈ 1.92 µM).
In the same order, the values of `O=C1c2ccc(Cl)cc2-n2c1nc1ncccc1c2=O` [Example 22] are 0.278 µg/mL (≈ 0.979 µM) and 0.263 µg/mL (≈ 0.927 µM).
Regarding `O=C1c2cc(I)ccc2-n2c1nc1ncccc1c2=O` [Example 23], the half-inhibitory concentration (IC50) came out at 0.00397 µg/mL (≈ 0.0106 µM) in experiment [1] and 0.00167 µg/mL (≈ 0.00445 µM) in experiment [2].
Regarding `Cc1ccc(S(=O)(=O)N/N=C2/c3ccccc3-n3c2nc2ccccc2c3=O)cc1` [Example 25], the half-maximal inhibitory concentration (IC50) in experiment [1] is 1.84 µg/mL (≈ 4.42 µM); in experiment [2] it was 1.99 µg/mL (≈ 4.78 µM).
On to `CCOC(=O)c1ccc2c(c1)C(=O)c1nc3ccc(I)cc3c(=O)n1-2` [Example 26], for which the IC50 came to 0.589 µg/mL (≈ 1.32 µM) in experiment [1] and 0.609 µg/mL (≈ 1.37 µM) in experiment [2].
As to `O=C1c2cc(I)ccc2-n2c1nc1c(Br)cc(Br)cc1c2=O` [Example 29], the half-maximal inhibitory concentration (IC50) in experiment [1] worked out at 0.149 µg/mL (≈ 0.281 µM); in experiment [2], 0.131 µg/mL (≈ 0.245 µM).
The corresponding values for `O=C1c2ccccc2-n2c1nc1nccnc1c2=O` [Example 30] are 0.5 µg/mL (≈ 2 µM) and 0.354 µg/mL (≈ 1.42 µM).
In the same order, the values of `CC(C)(C)OC(=O)N1CCN(c2cc3nc4n(c(=O)c3cc2F)-c2ccc(I)cc2C4=O)CC1` [Example 31] are 0.161 µg/mL (≈ 0.279 µM) and 0.134 µg/mL (≈ 0.233 µM).
With `O=C1c2cc(I)ccc2-n2c1nc1c(O)nc(O)nc1c2=O` [Example 32], the IC50 came to 3.85 µg/mL (≈ 9.43 µM) in experiment [1] and 2.59 µg/mL (≈ 6.34 µM) in experiment [2].
On to `O=C1c2ccccc2-n2c1nc1c(Br)cc(Br)c(F)c1c2=O` [Example 33], for which the IC50 in experiment [1] came to 0.0671 µg/mL (≈ 0.158 µM); in experiment [2], 0.0796 µg/mL (≈ 0.188 µM).
Turning to `CC1CN(c2cc3nc4n(c(=O)c3cc2F)-c2ccc(I)cc2C4=O)CCN1C(=O)OC(C)(C)C` (stereo not shown) [Example 34], the IC50 in experiment [1] came to 0.588 µg/mL (≈ 0.996 µM); in experiment [2], 0.601 µg/mL (≈ 1.02 µM).
With `CC1CN(c2cc3nc4n(c(=O)c3cc2F)-c2ccc(I)cc2C4=O)CCN1` (stereo not shown) [Example 35], the IC50 in experiment [1] turned out to be 0.103 µg/mL (≈ 0.211 µM); in experiment [2] it was 0.134 µg/mL (≈ 0.273 µM).
Turning to `CC(C)(C)OC(=O)N/N=C1/c2ccccc2-n2c1nc1ccccc1c2=O` [Example 36], the IC50 in experiment [1] came out at 4.2 µg/mL (≈ 11.6 µM); in experiment [2], 4.82 µg/mL (≈ 13.3 µM).
The corresponding values for `NC(=O)N/N=C1/c2ccccc2-n2c1nc1ccccc1c2=O` [Example 37] are 3.78 µg/mL (≈ 12.4 µM) and 3.48 µg/mL (≈ 11.4 µM).
Turning to `O=C1c2ccccc2-n2c1nc1c(Br)cc(Br)c(Cl)c1c2=O` [Example 38], the figures for the IC50 in experiment [1] and in experiment [2] were 0.242 µg/mL (≈ 0.549 µM) and 0.203 µg/mL (≈ 0.461 µM), respectively.
With `CCCCCCCCc1ccc2c(c1)C(=O)c1nc3ccncc3c(=O)n1-2` [Example 41], the IC50 was 0.0123 µg/mL (≈ 0.0341 µM) in experiment [1] and 0.00766 µg/mL (≈ 0.0212 µM) in experiment [2].

For the origin of these results see patent US8012987B2, “Indolo[2,1-b] quinazole-6,12-dione antimalarial compounds and methods of treating malaria therewith” (The United States of America as represented by the …, priority 1998, dated 2011).
